In US20080171097A1, “PRODUCT LIQUORICE ROOT AND OAK BARK IN COMBINATION WITH DEXAPANTHENOL” (priority 2007, published 2008):

Tested on: herpes disease in the lip region (herpes blisters)
Test: Topical application of the composition in the oral and/or pharyngeal cavity of voluntary test persons (herpes blisters, other inflammations)
Type: in vivo, human (voluntary test persons)
Details: a test subject
From the text: This composition was applied in the oral and/or pharyngeal cavity of voluntary test persons. When there were signs that herpes blisters were about to occur or when herpes blisters had already occurred, the composition was applied several times daily to the affected skin sites using a cotton bud. In the case of other inflammations in the oral and/or pharyngeal cavity the solution was also either applied locally or a dilution of this solution was gurgled.

With `Nc1nc2c(ncn2COCCO)c(=O)[nH]1` [Aciclovir] the “relapse / reoccurrence after treatment and healing of acute herpes blisters” value was “relapses very often occurred again within the following 14 days”.
